Measurements published in PubChem BioAssay AID1963972 (Molecular Pharmacology Branch, DTP, NCI, 2024).

System: 945468-187-T-J2-PDC spheroids viability
Assay: Anticancer human tumor 945468-187-T-J2-PDC patient-derived rectal carcinoma cell line growth inhibition [PI3K]
Details: spheroids with HUVEC and MSC; for IC50: curve of first compound; for viability, T/C: stronger effect = lower value
In short: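 Agents were dosed from a top concentration near clinical Cmax (otherwise 10 microM) in half-log decrements, alone or combined with PI3K inhibitors. The spheroids contain tumor cells plus endothelial (HUVEC) and MSC stroma; viability is measured.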

[1] = second compound 0.0316 µM, first compound 0.0316 µM
[2] = second compound 0.0316 µM, first compound 0.1 µM
[3] = second compound 0.0316 µM, first compound 0.316 µM
[4] = second compound 0.0316 µM, first compound 1 µM
[5] = second compound 0.0316 µM, first compound 3.16 µM
[6] = second compound 0.0316 µM, first compound 10 µM
[7] = second compound 0.1 µM, first compound 0.0316 µM
[8] = second compound 0.1 µM, first compound 0.1 µM
[9] = second compound 0.1 µM, first compound 0.316 µM
[10] = second compound 0.1 µM, first compound 1 µM
[11] = second compound 0.1 µM, first compound 3.16 µM
[12] = second compound 0.1 µM, first compound 10 µM
[13] = second compound 0.316 µM, first compound 0.0316 µM
[14] = second compound 0.316 µM, first compound 0.1 µM
[15] = second compound 0.316 µM, first compound 0.316 µM
[16] = second compound 0.316 µM, first compound 1 µM
[17] = second compound 0.316 µM, first compound 3.16 µM
[18] = second compound 0.316 µM, first compound 10 µM
[19] = second compound 1 µM, first compound 0.0316 µM
[20] = second compound 1 µM, first compound 0.1 µM
[21] = second compound 1 µM, first compound 0.316 µM
[22] = second compound 1 µM, first compound 1 µM
[23] = second compound 1 µM, first compound 3.16 µM
[24] = second compound 1 µM, first compound 10 µM
[25] = second compound 3.16 µM, first compound 0.0316 µM
[26] = second compound 3.16 µM, first compound 0.1 µM
[27] = second compound 3.16 µM, first compound 0.316 µM
[28] = second compound 3.16 µM, first compound 1 µM
[29] = second compound 3.16 µM, first compound 3.16 µM
[30] = second compound 3.16 µM, first compound 10 µM
[31] = second compound 10 µM, first compound 0.0316 µM
[32] = second compound 10 µM, first compound 0.1 µM
[33] = second compound 10 µM, first compound 0.316 µM
[34] = second compound 10 µM, first compound 1 µM
[35] = second compound 10 µM, first compound 3.16 µM
[36] = second compound 10 µM, first compound 10 µM
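Also: spheroids exposed to compounds for seven days before reading.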

CC1(C)CCC(CN2CCN(c3ccc(C(=O)NS(=O)(=O)c4ccc(NCC5CCOCC5)c([N+](=O)[O-])c4)c(Oc4cnc5[nH]ccc5c4)c3)CC2)=C(c2ccc(Cl)cc2)C1 + Cc1nc(NC(=O)N2CCCC2C(N)=O)sc1-c1ccnc(C(C)(C)C(F)(F)F)c1
IC50 (second compound 0.0316 µM): > 10 µM
IC50 (second compound 0.1 µM): > 10 µM
IC50 (second compound 0.316 µM): > 10 µM
IC50 (second compound 1 µM): > 10 µM
IC50 (second compound 3.16 µM): > 10 µM
IC50 (second compound 10 µM): > 10 µM
viability, T/C [1]: 101%
viability, T/C [2]: 99.6%
viability, T/C [3]: 121%
viability, T/C [4]: 103%
viability, T/C [5]: 98.7%
viability, T/C [6]: 61.4%
viability, T/C [7]: 118%
viability, T/C [8]: 97.5%
viability, T/C [9]: 116%
viability, T/C [10]: 99.5%
viability, T/C [11]: 110%
viability, T/C [12]: 66.2%
viability, T/C [13]: 113%
viability, T/C [14]: 83.7%
viability, T/C [15]: 108%
viability, T/C [16]: 91.7%
viability, T/C [17]: 80.2%
viability, T/C [18]: 66.6%
viability, T/C [19]: 102%
viability, T/C [20]: 102%
viability, T/C [21]: 82.3%
viability, T/C [22]: 102%
viability, T/C [23]: 100%
viability, T/C [24]: 71.5%
viability, T/C [25]: 81.4%
viability, T/C [26]: 91%
viability, T/C [27]: 72.6%
viability, T/C [28]: 81.2%
viability, T/C [29]: 93.8%
viability, T/C [30]: 59%
viability, T/C [31]: 83.3%
viability, T/C [32]: 76.8%
viability, T/C [33]: 69.8%
viability, T/C [34]: 71.5%
viability, T/C [35]: 75.5%
viability, T/C [36]: 63.7%

C[C@@H](NC(=O)c1ncnc(N)c1Cl)c1ncc(C(=O)Nc2cc(C(F)(F)F)c(Cl)cn2)s1 + Cc1nc(NC(=O)N2CCCC2C(N)=O)sc1-c1ccnc(C(C)(C)C(F)(F)F)c1
IC50 (second compound 0.0316 µM): > 10 µM
IC50 (second compound 0.1 µM): > 10 µM
IC50 (second compound 0.316 µM): > 10 µM
IC50 (second compound 1 µM): > 10 µM
IC50 (second compound 3.16 µM): > 10 µM
IC50 (second compound 10 µM): > 10 µM
viability, T/C [1]: 94.3%
viability, T/C [2]: 92.5%
viability, T/C [3]: 77.2%
viability, T/C [4]: 91.5%
viability, T/C [5]: 96.2%
viability, T/C [6]: 69.2%
viability, T/C [7]: 100%
viability, T/C [8]: 80.3%
viability, T/C [9]: 95.8%
viability, T/C [10]: 77.4%
viability, T/C [11]: 105%
viability, T/C [12]: 93.7%
viability, T/C [13]: 99.8%
viability, T/C [14]: 82.9%
viability, T/C [15]: 123%
viability, T/C [16]: 93.4%
viability, T/C [17]: 87%
viability, T/C [18]: 85%
viability, T/C [19]: 91.4%
viability, T/C [20]: 102%
viability, T/C [21]: 99%
viability, T/C [22]: 102%
viability, T/C [23]: 81.1%
viability, T/C [24]: 86.1%
viability, T/C [25]: 90.8%
viability, T/C [26]: 91.5%
viability, T/C [27]: 92.4%
viability, T/C [28]: 89%
viability, T/C [29]: 89.5%
viability, T/C [30]: 83%
viability, T/C [31]: 76.3%
viability, T/C [32]: 70.1%
viability, T/C [33]: 85.7%
viability, T/C [34]: 68.7%
viability, T/C [35]: 72.2%
viability, T/C [36]: 80.2%
